For one assay, the system named is C. glabrata. The assay is classed as cell-based, Candida glabrata. The note with it: 48 h. As for the experimental part:
(§1) Two Candida albicans isolates were purchased from the ATCC (No. 24433 and 76615). The other yeast isolates were obtained from the collection of Fondazione Ca' Granda- Ospedale Maggiore Policlinico, Milano. The collection included C. albicans (7 isolates), C. glabrata (3 isolates), and C. krusei (3 isolates). Antifungal susceptibility testing was performed using the broth microdilution method according to the NCCLS M27-A guidelines (National Committee for Clinical Laboratory Standards. 1997, Reference method for broth dilution antifungal susceptibility testing of yeasts and approved standard NCCLS document M27-A. National Committee for Clinical Laboratory Standards, Wayne, Pa.). […] After 48 h of incubation, the plates were inspected for purity. A colony was taken from the agar plate and transferred into 5 mL Sabouraud-dextrose broth and incubated for 48 h at 35°C. Cells were centrifuged at 1,000× g for 10 min and the pellet was washed twice with distilled water. Cells were counted and suspended in RPMI 1640 medium buffered to pH 7.0 with 0.165 mol l^−1 morpholinepropanesulphonic acid (MOPS) buffer (Sigma) to obtain the two times test inoculum (1×10^3 to 5×10^3 CFU/mL). […] The MIC90, i.e. the minimum inhibitory concentrations endpoint were determined as 90% reduction in turbidity measured using a spectrophotometer (Titertek multiscan at 690 nm wave length).

In the next assay the test system is C. krusei. The assay is classed as cell-based, Candida krusei. The note with it: 48 h. How it is done: as §1
Assay [1] relates to Candida strains (C. albicans, C. glabrata, C. krusei). The assay can be described thus: Anti-Candida assay, overall result in words. The assay is classed as cell-based, Candida spp. Conditions: standard culture conditions, broth culture medium. As for the experimental part:
as §1

The next assay has as its system C. albicans. In kind it is cell-based, Candida albicans. Conditions: 48 h. As for the experimental part:
as §1

In brackets after ≈: the same amount, converted by molar mass. Where a SMILES comes first, the peptide text is derived from it. Bounds are passed on as bounds.

As for `CC(C)[C@H](NC(=O)[C@H](Cc1ccccc1)NC(=O)[C@H](CCCCN)NC(=O)C(C)(C)NC(=O)[C@H](Cc1c[nH]c2ccccc12)NC(=O)[C@H](CCCNC(=N)N)NC(=O)[C@@H](Cc1ccc2ccccc2c1)NC(=O)[C@@H](N)Cc1c[nH]cn1)C(N)=O` [Peptide 1, H-His-D(2′)Nal-Arg-Trp-Aib-Lys-Phe-Val-NH2] (HELM PEPTIDE1{H.[O=C([C@@H](Cc1ccc2ccccc2c1)N[*:1])[*:2]].R.W.[Aib].K.F.V.[am]}$$$$V2.0), the “MIC 90” value was >100 µM in the assay with C. glabrata and 97 µM (≈ 112 µg/mL) in the assay on C. krusei. The “antimicrobial / anti-Candida activity (in words)” value in assay [1] is given as “did not show antimicrobial activity”.

With `CCC(CC)(NC(=O)[C@H](Cc1c[nH]c2ccccc12)NC(=O)[C@H](CCCNC(=N)N)NC(=O)[C@@H](Cc1ccc2ccccc2c1)NC(=O)[C@@H](N)Cc1c[nH]cn1)C(=O)N[C@@H](CCCCN)C(=O)N[C@@H](Cc1ccccc1)C(=O)N[C@H](C(N)=O)C(C)C` [Peptide 2, H-His-D(2′)Nal-Arg-Trp-Deg-Lys-Phe-Val-NH2] (HELM PEPTIDE1{H.[O=C([C@@H](Cc1ccc2ccccc2c1)N[*:1])[*:2]].R.W.[CCC(CC)(N[*:1])C(=O)[*:2]].K.F.V.[am]}$$$$V2.0), the “MIC 90” value with C. albicans, against C. glabrata and against C. krusei was >100 µM in each case. In addition, the “antimicrobial / anti-Candida activity (in words)” value in assay [1] was “did not show antimicrobial activity”.

With `CC(C)[C@H](NC(=O)[C@H](Cc1ccccc1)NC(=O)[C@H](CCCCN)NC(=O)C1(NC(=O)[C@H](Cc2c[nH]c3ccccc23)NC(=O)[C@H](CCCNC(=N)N)NC(=O)[C@@H](Cc2ccc3ccccc3c2)NC(=O)[C@@H](N)Cc2c[nH]cn2)CCC1)C(N)=O` [Peptide 5, H-His-D(2′)Nal-Arg-Trp-Ac4c -Lys-Phe-Val-NH2] (HELM PEPTIDE1{H.[O=C([C@@H](Cc1ccc2ccccc2c1)N[*:1])[*:2]].R.W.[O=C(C1(N[*:1])CCC1)[*:2]].K.F.V.[am]}$$$$V2.0), the results for the “MIC 90” value against C. glabrata and with C. krusei were >100 µM and 99 µM (≈ 115 µg/mL), respectively. Also, the “antimicrobial / anti-Candida activity (in words)” value in assay [1] is given as “weak activity”.

Regarding `CC(C)[C@H](NC(=O)[C@H](Cc1ccccc1)NC(=O)[C@H](CCCCN)NC(=O)C1(NC(=O)[C@H](Cc2c[nH]c3ccccc23)NC(=O)[C@H](CCCNC(=N)N)NC(=O)[C@@H](Cc2ccc3ccccc3c2)NC(=O)[C@@H](N)Cc2c[nH]cn2)CCCC1)C(N)=O` [Peptide 6, H-His-D(2′)Nal-Arg-Trp-Ac5c-Lys-Phe-Val-NH2] (HELM PEPTIDE1{H.[O=C([C@@H](Cc1ccc2ccccc2c1)N[*:1])[*:2]].R.W.[O=C(C1(N[*:1])CCCC1)[*:2]].K.F.V.[am]}$$$$V2.0), the “MIC 90” value against C. glabrata and against C. krusei was >100 µM throughout. For the same compound, the “antimicrobial / anti-Candida activity (in words)” value in assay [1] is recorded as “substantial activity”.

For `CC(C)[C@H](NC(=O)[C@H](Cc1ccccc1)NC(=O)[C@H](CCCCN)NC(=O)C1(NC(=O)[C@H](Cc2c[nH]c3ccccc23)NC(=O)[C@H](CCCNC(=N)N)NC(=O)[C@@H](Cc2ccc3ccccc3c2)NC(=O)[C@@H](N)Cc2c[nH]cn2)CCCCC1)C(N)=O` [Peptide 7, H-His-D(2′)Nal-Arg-Trp-Ac6c -Lys-Phe-Val-NH2] (HELM PEPTIDE1{H.[O=C([C@@H](Cc1ccc2ccccc2c1)N[*:1])[*:2]].R.W.[O=C(C1(N[*:1])CCCCC1)[*:2]].K.F.V.[am]}$$$$V2.0), the “MIC 90” value in the assay with C. albicans is reported as 51 µM (≈ 60.9 µg/mL); against C. glabrata, >100 µM. Further, the “antimicrobial / anti-Candida activity (in words)” value in assay [1] is “substantial activity”.

Values taken from article PMC3634028, “Novel α-MSH Peptide Analogues with Broad Spectrum Antimicrobial Activity” (PLoS ONE, 2013).
